Earlier results as cited in patent publication US20100172981A1, “Ibuprofen-Effervescent Preparation Having a High Dissolution Rate and Method for the Production thereof” (Losan Pharma GMBH, priority 2006, published 2010).

Details: general statement in the background section

solubility / dissolution in water (words, background): dissolves only slowly in water
Structure (SMILES): CC(C)Cc1ccc(C(C)C(=O)O)cc1.[Na] (stereo not shown) [ibuprofen-sodium]
